Test results as given in patent publication US20050137247A1, “Methods and compositions for treatment of hypertension” (The Brigham and Women's Hospital, Inc., priority 2003, published 2005).
Where “and” joins values, the source holds several entries; their conditions need not be identical. Identical values can stand only once. Entries after “also recorded” stand apart in the source; their conditions may differ.

How the values were obtained:
Type in all cases: in vivo, human
[1] = system: male patients with untreated, uncomplicated, essential hypertension; assay: Finger arterial blood pressure recordings by Finometer; details: repeated melatonin; supine resting or standing, daytime
Description: (§1) Measurements. […] Ambulatory blood pressure was measured every half hour for 32 hours, from 8 hours before bedtime until bedtime the next day. In addition, noninvasive finger arterial blood pressure recordings were performed by Finometer (TNO Biomedical Instruments, Amsterdam, The Netherlands) (Bos, W. J., et al., Circulation, 94 (1996) 1870-5), to estimate changes in total peripheral resistance, stroke volume, and cardiac output, as possible explanations for changes in blood pressure. […] During all ambulatory blood pressure recordings, the subjects reported sleep details in a sleep-wake diary and wore an Actiwatch (Cambridge Neurotechnology Ltd, Cambridge, UK), a piezo-electric accelerometer, on the non-dominant wrist to assess motor activity at 1 min intervals for the estimation of sleep quality.
(§2) Data analysis. Sleep blood pressure was defined as the mean blood pressure from the time of falling asleep until the time of awakening, as determined by actigraphy. Awake blood pressure was defined as the mean blood pressure during the remaining portion of the day. Continuous Finometer data were analyzed by Beatscope software (TNO-Biomedical Instruments, Amsterdam, The Netherlands) (Bos, W. J., et al., Circulation, 94 (1996) 1870-5). Periods of 5 min with a stable blood pressure signal were used for both supine and standing periods. To accurately determine the sleeping period and estimate sleep quality, automatic sleep/wake scoring was performed with Actiwatch Sleep Analysis 98 (Cambridge Neurotechnology Ltd, V4.15), with sensitivity set to medium, on the actigraphy data between “bed time” and “get up time” derived from the sleep-wake diaries. Three sleep variables were objectively computed by this analysis. ‘Sleep latency’ was the calculated time between bed time and sleep onset. The time asleep was termed actual sleep time. The percentage of time asleep while in bed was defined as ‘sleep efficiency’.

[2] = system: male patients with untreated, uncomplicated, essential hypertension; assay: 24-hour rhythm analysis of ambulatory blood pressure (peaked and skewed cosine fit)
Source text: Statistics. Because not all variables were normally distributed (Shapiro's-Wilk's W Test), non-parametric tests were used as required. Consequently, Altman's crossover analysis methods were applied (Altman, D. G., Crossover trials, Practical statistics for medical research, Vol. 1, Chapman and Hall. London, 1991, pp. 467-471). […] Student's t-tests for independent variables or Mann-Whitney U tests were applied for all dependent variables to test a carryover effect for (1) single treatment periods, and (2) repeated treatment periods. Correlation between a change in sleep quality and a change in sleep blood pressure was tested by linear correlation. The 24-hour rhythm in blood pressure was fitted by standard cyclic regression models: cosine, cosine with second harmonic, skewed cosine, peaked cosine, and skewed and peaked cosine analysis (Batschelet, E., Circular Statistics in Biology, Academic Press, 1981, 371 pp.). Of these, the latter best fitted the data as indicated by the Akaike's Information Criterion (AIC) (de Leeuw, J., introduction to Akaike (1973) Information Theory and an Extension of the Maximum Likelihood Principle. In S. Kotz and N. L. Johnson (Eds.), Breakthroughs in statistics, Vol. 1, Springer-Verlag. London, 1992 pp. 599-609) and was used for subsequent analysis. Two-tailed p values lower than 0.05 were considered to indicate statistical significance. All group data are presented as means±standard deviation (SD) or means including 95% confidence interval (95% CI).
24-Hour rhythm analysis of ambulatory blood pressure. For 24-hour rhythm analysis of ambulatory blood pressure, the peaked and skewed cosine analysis was used. […] The decrease in minimum and mean systolic blood pressure was not significant (−6±15 mm Hg; p=0. 13 and −5±12 mm Hg; p=0. 19).

[3] = system: male patients with untreated, uncomplicated, essential hypertension; assay: Actigraphic estimates of sleep quality (Actiwatch)
Description: as §1, §2

[4] = system: male patients with untreated, uncomplicated, essential hypertension; assay: 24-hour ambulatory blood pressure and heart rate, randomized double-blind placebo-controlled crossover trial
Source text: Patients. Sixteen male patients with untreated, uncomplicated, essential hypertension were included in the study. Women were excluded to prevent possible interference of the menstrual cycle and oral anticonceptives on cardiovascular and circadian regulation. Patients were considered hypertensive, with a daytime ambulatory blood pressure between 140-179 mm Hg systolic or between 90-109 mm Hg diastolic. Secondary hypertension was excluded by medical history and routine laboratory tests. Five patients had never received antihypertensive medication; in the others antihypertensive treatment was stopped at least three weeks before participation. Their mean (±SD) age was 55±8 (range 36-68) years and mean BMI was 26.8±.1.7 (23.3-29.1) kg/m^2. Mean self reported habitual waking and bedtimes were 06:38 a.m. ±55 minutes and 11:29 p.m. ±26 minutes, respectively. […] Five days before and during ambulatory blood pressure measurements, subjects maintained fixed sleep-wake cycles according to their habitual sleep-wake cycle. All procedures were carried out with adequate understanding and written consent of the subjects and were approved by the Ethics Committee of the Academic Medical Center of the University of Amsterdam.
Study Design. […] On assessment days, patients abstained from heavy physical exercise, daytime napping, alcohol and nicotine consumption and coffee was restricted to two consumptions per day during breakfast or lunch. Meal times were restricted to the following periods: breakfast 1 to 1.5 hours after waking; lunch 11 to 10 hours before bedtime; and dinner 5 to 4 hours before bedtime.
as §1, §2
Statistics. Because not all variables were normally distributed (Shapiro's-Wilk's W Test), non-parametric tests were used as required. Consequently, Altman's crossover analysis methods were applied (Altman, D. G., Crossover trials, Practical statistics for medical research, Vol. 1, Chapman and Hall. London, 1991, pp. 467-471). […]

[5] = 3 weeks melatonin vs 3 weeks placebo
[6] = 3 weeks melatonin vs 3 weeks placebo, not significant
[7] = repeated melatonin vs placebo, no effect
[8] = acute (single) melatonin 2.5 mg vs single placebo
[9] = after 3 weeks melatonin 2.5 mg orally 1 hour before bedtime, mean ± SD
[10] = individual patient 14, relative to placebo level (FIG. 2)

With `COc1ccc2[nH]cc(CCNC(C)=O)c2c1` [Melatonin, N-acetyl-5-methoxy-tryptamine] the “effect on blood pressure (Finometer)” value [1] was “no elect”, the “effect on cardiac output (Finometer)” value [1] was “no elect” and the “effect on heart rate (Finometer)” value [1] was “no elect”. The “effect on stroke volume (Finometer)” value [1] was “no elect”, the “effect on total peripheral resistance (Finometer)” value [1] was “no elect” and the “decrease of calculated mean diastolic blood pressure” value [2, 5] was 4±6 mm Hg. For the same compound, the “decrease of calculated minimum diastolic blood pressure” value [2, 5] was 5±7 mm Hg, the “increase of day-night rhythm amplitude of diastolic blood pressure” value [2, 5] was 25% and the “increase of day-night rhythm amplitude of systolic blood pressure” value [2, 5] was 15%. For the same compound, the “change in mean systolic blood pressure” value [2, 6] was −5±12 mm Hg, the “change in minimum systolic blood pressure” value [2, 6] was −6±15 mm Hg and the “effect on time of the minimum blood pressure” value ([2]; repeated melatonin vs placebo) was “no effects”. The “change in maximum diastolic blood pressure” value [2, 7] was −1±5 mm Hg, the “change in maximum systolic blood pressure” value [2, 7] was −2±12 mm Hg and the “effect on actual sleep time” value ([3]; acute melatonin application) was “no significant effect”. For the same compound, the “effect on sleep latency” value ([3]; acute melatonin application) was “no significant effect”, the sleep latency ([3]; after repeated melatonin (placebo 33 minutes)) was 22 min and the actual sleep time ([3]; after repeated melatonin (placebo 5.6 hours)) was 6.1 h. The “change in awake diastolic blood pressure” value [4, 6] was −1 mm Hg, the “change in awake systolic blood pressure” value [4, 6] was −5 mm Hg and the “effect on diastolic blood pressure awake” value [4, 8] was “no effect”. For the same compound, the “effect on diastolic blood pressure whilst asleep” value [4, 8] was “no effect”, the “effect on systolic blood pressure awake” value [4, 8] was “no effect” and the “effect on systolic blood pressure whilst asleep” value [4, 8] was “no effect”. For the same compound, the “Sleeping Period Distolic BP” value [4, 9] was 82.4 ± 4.0, the “Sleeping Period Heart Rate” value [4, 9] was 61.1 ± 6.5 and the “Sleeping Period Systolic BP” value [4, 9] was 130.6 ± 10.0. The “Waking Period Distolic BP” value [4, 9] was 95.4 ± 7.7, the “Waking Period Heart Rate” value [4, 9] was 71.2 ± 7.8 and the “Waking Period Systolic BP” value [4, 9] was 147.6 ± 12.3. The “effect of repeated melatonin on waking diastolic blood pressure, patient 14” value [4, 10] was −27 mm Hg, the “effect of repeated melatonin on waking systolic blood pressure, patient 14” value [4, 10] was −53 mm Hg and the “reduction of sleep diastolic blood pressure” value ([4]; repeated (3 weeks daily) 2.5 mg melatonin 1 hour before bedtime vs 3 weeks placebo) was 4±6 mm Hg and 4 mm Hg. For the same compound, the “effect on heart rate” value ([4]; repeated (3 weeks daily) 2.5 mg melatonin vs placebo) was “without a change; also recorded: did not affect” and the “effect on blood pressure” value ([4]; single dose of melatonin 2.5 mg) was “no effect”.
